These results are taken from patent US10399966B2, “Compounds for treatment of trypanosomes and neurological pathogens and uses thereof” (The University of North Carolina at Chapel Hill, priority 2016, dated 2019).

One data set concerns T. b. brucei. In words: In vitro antitrypanosomal activity against T. brucei (growth inhibition). The class given is cell-based, Trypanosoma brucei. The note with it: Trypanosoma brucei; for EC90: read-out: T. brucei EC90. How it is done:
Primary hits from the screen were further characterized using a dose-response assay format to determine the EC50. In parallel, the cytotoxicities of these compounds were determined against a proliferating human hepatoma cell line (Huh7). […] SI—CC50/EC50). The final set of confirmed T. brucei hits consisted of 1035 inhibitors. […] In vitro antitrypanosomal activities against T. b. rhodesiense (STIB9000) and cytotoxicities against L6 rat myoblast cells were measured following established protocols (Orhan et al., Mar. Drugs 8:47 (2010). […] All wells including negative controls contained a final of 0.4% DMSO. After incubation of the plates at 37° C. for 48 h, the parasite density was determined using the CellTiter-Glo reagent (Promega), a firefly luciferase assay system that measures the amount of cellular ATP present in plate wells.

Another data set concerns Trypanosoma cruzi. In words: Efficacy against T. cruzi in vitro. The conditions noted are these: Trypanosoma cruzi, Table 10; for EC50: read-out: T.cruzi EC50; for EC90: read-out: T.cruzi EC90. The class given is cell-based.
Data set [1] in a line: Distribution between mouse plasma and brain (brain penetration, ip). It counts as in vivo. The conditions noted are these: for Brain/plasma ratio / [compound]Brain / [compound]Plasma: Table 14, mice, single ip dose 5 mg/kg, one hour post-dose; for [compound]Brain / [compound]Plasma: ± SEM of 3 mice (compound 3: 6 mice); for Kp at 1 h / concentration at 1 h: mouse, intraperitoneal, 5 mg/kg; for Kp at 1 h: brain and plasma, read-out: Average brain/plasma ratio. How it is done: For distribution of compounds between mouse plasma and brain, mice (in groups of 3) were injected with test compounds (5 mg/kg ip) and sacrificed at the indicated times for collection of plasma and brain. Compound was dissolved in 0.4 mL of dosing solution (7% Tween 80, 3% ethanol, 5% DMSO, 0.9% saline) for ip injections. The brains were weighed and immediately frozen, then later homogenized in acetonitrile using a Dounce homogenizer. Prior to animal studies, recovery of test compound was carried out by adding a known amount to a mouse brain in the test extraction solvent and performing the homogenization. Compound recovery was determined by liquid chromatography/tandem mass spectrometry analysis relative to a standard compound amount. Blood was taken from the same mice in heparinized capillary tubes (Fisherbrand) for determination of compound concentration in plasma. The concentration of compound in the brain was obtained by dividing the moles of compound in the brain by the brain volume (obtained from the brain weight assuming 1 g is 1 mL) and correcting for the brain vasculature volume of 2.5% by weight.
Brain penetration studies (Table 14) were initially performed upon compounds 1, 2, and 3, but were expanded to include other compounds in order to explore the SAR of brain penetration. Groups of three mice were given single 5 mg/kg ip doses of the test compounds and were sacrificed 1 h post-dose.

For the next data set, the system named is human hepatocytes HepG2. In words: Cytotoxicity against HepG2 cells. The note with it: for EC50: Homo sapiens, HepG2, read-out: HepG2 EC50; for EC90: read-out: HepG2 EC90, concentration required to inhibit growth by 90%, human hepatocytes.
In data set [2] the test system is human lymphocytes CRL-8155. In words: Cytotoxicity against CRL-8155 cells. The conditions noted are these: human lymphoblasts; for EC50: read-out: CRL-8155 EC50, concentration required to inhibit growth by 50%; for EC90: read-out: CRL-8155 EC90, concentration required to inhibit growth by 90%.
Procedure: The selectivity of each compound for the parasite over each of the two cell lines was calculated.
[3] abbreviates: Table 11, read-out: T. b. brucei EC50.
The mark [4] stands for this setting: Table 9, read-out: T. brucei EC50.
[5] abbreviates: Table 8, read-out: T. brucei EC50.
Setting [6] is: brain, Table 8, groups of 3 mice (compound 3: ± SEM of 6 mice), read-out: Average [compound] brain.
Where [7] appears, read: plasma, Table 8, groups of 3 mice (compound 3: ± SEM of 6 mice), read-out: Average [compound] plasma.

Read-outs that look alike come from different tables or passages of the source.

For the molecule `O=C(Nc1ccc2sc(-c3cccc(F)c3F)nc2c1)N1CCCC1` [Compound 5, 2-(2,3-Difluorophenyl)-5-(N-pyrrolidylamido)benzothiazole], the melting point – broadly, the temperature, or range, at which the solid turns liquid – was 194 to 195 °C. Further, the concentration giving a half-maximal response (EC50) (in general, the concentration needed to bring the measured effect to its halfway point) in the data set on T. b. brucei (Table 7, read-out: T. brucei EC50) stood at 183 nM. Further, in the data set with T. b. brucei (setting [3]), the EC50 amounted to 183 nM. The EC50 in the data set on T. b. brucei (setting [4]) was found to be 183 nM. In addition, the EC90 – broadly, the point of the concentration-response curve where the effect stands at 90% – in the data set on T. b. brucei (Table 9) stood at 394 nM. In addition, in the data set on Trypanosoma cruzi, the EC50 was determined as 578 nM and the EC90 is 665 nM. In data set [1], the Brain/plasma ratio is reported as 1.76 ± 0.032, the “[compound]Brain” value is 2.31 ± 0.746 µM and the “[compound]Plasma” value was 1.3 ± 0.406 µM. The Kp at 1 h in data set [1] (Table 7, groups of 3 mice) turned out to be 1.76 ± 0.055. The concentration at 1 h in data set [1] (brain, Table 7, groups of 3 mice, read-out: Average [compound] brain) was 2310 ± 1290 nM. Also, the concentration at 1 h in data set [1] (plasma, Table 7, groups of 3 mice, read-out: Average [compound] plasma) was found to be 1300 ± 703 nM. Further, in the data set with human hepatocytes HepG2, the EC50 is over 50000 nM and the 90% effect concentration (EC90) was over 50000 nM. Also, in data set [2], the 50% effective concentration (EC50) is over 50000 nM and the EC90 was over 50000 nM.
`O=C(Nc1ccc2sc(-c3ccc(F)c(F)c3)nc2c1)N1CCC(F)(F)C1` [Compound 9, 2-(3,4-Difluorophenyl)-5-(3,3-difluoro-N-pyrrolidylamido)benzothiazole] came in with a melting point of 227 to 228 °C. The EC50 in the data set on T. b. brucei (setting [5]) was 934 nM. Also, the EC50 with T. b. brucei (setting [3]) amounted to 934 nM. For the same molecule, the EC50 with T. b. brucei (setting [4]) was found to be 934 nM. In addition, the EC90 in the data set with T. b. brucei (Table 9) amounted to 1660 nM. In data set [1], the Brain/plasma ratio came to 7.92 ± 0.693, the “[compound]Brain” value was 21.7 ± 1.96 µM and the “[compound]Plasma” value turned out to be 2.81 ± 0.452 µM. Further, the Kp at 1 h in data set [1] (Table 8, groups of 3 mice) stood at 7.92 ± 1.2. Further, the concentration at 1 h in data set [1] (setting [6]) came out at 21700 ± 3400 nM. For the same molecule, the concentration at 1 h in data set [1] (setting [7]) was determined as 2810 ± 784 nM. In addition, in the data set with human hepatocytes HepG2, the EC50 is over 50000 nM and the EC90 was over 50000 nM. Besides, in data set [2], the EC50 is over 50000 nM and the EC90 is over 50000 nM.
`O=C(Nc1ccc2sc(-c3ccc(F)c(F)c3)nc2c1)N1CCCCC1` [Compound 12, 2-(3,4-Difluorophenyl)-5-(N-piperidylamido)benzothiazole] showed a melting point of 232 to 233 °C. In addition, the EC50 with T. b. brucei (setting [5]) was 223 nM. Further, the EC50 in the data set on T. b. brucei (setting [3]) was determined as 223 nM. For the same molecule, the EC50 with T. b. brucei (setting [4]) is 223 nM. In addition, the EC90 in the data set on T. b. brucei (Table 9) is 282 nM. In the data set on Trypanosoma cruzi, the EC50 was 429 nM and the 90% effect concentration (EC90) is 912 nM. For the same molecule, in data set [1], the Brain/plasma ratio is reported as 0.510 ± 0.023, the “[compound]Brain” value turned out to be 1.29 ± 0.156 µM and the “[compound]Plasma” value is 2.52 ± 0.185 µM. Besides, in data set [1] (Table 8, groups of 3 mice), the Kp at 1 h came out at 0.51 ± 0.04. The concentration at 1 h in data set [1] (setting [6]) stood at 1290 ± 270 nM. Further, the concentration at 1 h in data set [1] (setting [7]) was 2520 ± 320 nM. In the data set on human hepatocytes HepG2, the EC50 was over 50000 nM and the EC90 is over 50000 nM. Further, in data set [2], the concentration giving a half-maximal response (EC50) was over 50000 nM and the EC90 was over 50000 nM.
`O=C(Nc1ccc2sc(-c3ccc(F)c(F)c3)nc2c1)N1CCC(F)CC1` [Compound 13, 2-(3,4-Difluorophenyl)-5-(4-fluoro-N-piperidylamido)benzothiazole]: the melting point fell in the range of 231.5 to 232 °C. Further, in the data set with T. b. brucei (setting [5]), the EC50 is 341 nM. In the data set on T. b. brucei (setting [3]), the EC50 is 341 nM. Also, in the data set on T. b. brucei (setting [4]), the EC50 worked out at 341 nM. The EC90 in the data set on T. b. brucei (Table 9) stood at 596 nM. In addition, in the data set with Trypanosoma cruzi, the EC50 was determined as 1800 nM and the EC90 is 1990 nM. Also, in data set [1], the Brain/plasma ratio is listed as 1.01 ± 0.081, the “[compound]Brain” value came out at 2.52 ± 0.248 µM and the “[compound]Plasma” value stood at 2.51 ± 0.203 µM. In data set [1] (Table 8, groups of 3 mice), the Kp at 1 h amounted to 1.01 ± 0.14. Besides, the concentration at 1 h in data set [1] (setting [6]) amounted to 2530 ± 430 nM. Besides, in data set [1] (setting [7]), the concentration at 1 h was 2510 ± 352 nM. In the data set on human hepatocytes HepG2, the EC50 was over 50000 nM and the EC90 was over 50000 nM. In data set [2], the EC50 is over 50000 nM and the EC90 was over 50000 nM.
For the molecule `O=C(Nc1ccc2sc(-c3ccc(F)cc3)nc2c1)N1CCCC1` [Compound 26, 2-(4-Fluorophenyl)-5-(N-pyrrolidylamido)benzothiazole], the melting point fell in the range of 211 to 213 °C. Moreover, the EC50 in the data set on T. b. brucei (setting [3]) came out at 375 nM. For the same molecule, the EC50 in the data set on T. b. brucei (setting [4]) is 375 nM. Besides, the EC90 in the data set on T. b. brucei (Table 9) amounted to 895 nM. Also, in the data set on Trypanosoma cruzi, the EC50 was 666 nM and the EC90 was 802 nM. In the data set with human hepatocytes HepG2, the EC50 was over 50000 nM and the EC90 is over 50000 nM. Besides, in data set [2], the EC50 was over 50000 nM and the EC90 was over 50000 nM.
Take `O=C(Nc1ccc2sc(-c3ccc(F)cc3)nc2c1)N1CCCCC1` [Compound 27, 2-(4-Fluorophenyl)-5-(N-piperidylamido)benzothiazole]: the melting point was in the range of 227 to 229 °C. Besides, the half-maximal effective concentration (EC50) in the data set with T. b. brucei (setting [3]) amounted to 427 nM. The EC50 with T. b. brucei (setting [4]) came out at 427 nM. For the same molecule, the EC90 in the data set with T. b. brucei (Table 9) turned out to be 737 nM. Besides, in the data set on Trypanosoma cruzi, the EC50 came out at 1670 nM and the EC90 is 1950 nM. Also, in the data set with human hepatocytes HepG2, the EC50 was over 50000 nM and the EC90 was over 50000 nM. In data set [2], the 50% effective concentration (EC50) was over 50000 nM and the EC90 was over 50000 nM.
The molecule `O=C(Nc1ccc2sc(-c3ccccc3F)nc2c1)N1CCCC1` [Compound 32, 2-(2-Fluorophenyl)-5-(N-pyrrolidylamido)benzothiazole] had a melting point of 207 to 208 °C. In the data set on T. b. brucei (setting [3]), the EC50 amounted to 983 nM. Further, in the data set on T. b. brucei (setting [4]), the EC50 came out at 983 nM. In the data set with T. b. brucei (Table 9), the EC90 stood at 1240 nM. Also, in the data set on Trypanosoma cruzi, the EC50 came to 1230 nM and the EC90 was found to be 1990 nM. In addition, in the data set on human hepatocytes HepG2, the EC50 was over 50000 nM and the 90% effect concentration (EC90) is over 50000 nM. In addition, in data set [2], the EC50 was over 50000 nM and the EC90 is over 50000 nM.
As for `O=C(Nc1ccc2sc(-c3ccccc3F)nc2c1)N1CCCCC1` [Compound 33, 2-(2-Fluorophenyl)-5-(N-piperidylamido)benzothiazole], the melting point is 213 to 215 °C. For the same molecule, in the data set on T. b. brucei (setting [3]), the EC50 stood at 935 nM. Moreover, the concentration for a half-maximal effect (EC50) in the data set on T. b. brucei (setting [4]) worked out at 935 nM. The EC90 in the data set with T. b. brucei (Table 9) is 1140 nM. Also, in the data set on Trypanosoma cruzi, the EC50 worked out at 843 nM and the EC90 worked out at 1120 nM. Besides, in the data set on human hepatocytes HepG2, the EC50 is over 50000 nM and the concentration for an effect of 90% (EC90) is over 50000 nM. In data set [2], the EC50 is over 50000 nM and the 90% effect concentration (EC90) is over 50000 nM.
